# Assay results taken from ChEMBL document CHEMBL3885861, “Open TG-GATES”.
# Species on record: Rattus norvegicus
# Assay: Open TG-GATES - Regimen: Single
# Type: toxicity, organism-based, Sprague-Dawley
# Design: regimen Single, gender Male, age 6 weeks
# Details: in vivo, po, 150 mg/kg, route gavage, dose level High; for APTT / Bas / Eos / Fbg / Hb / Ht / Lym / MCH / MCHC / MCV / Mono / Neu / PT / Plat / RBC / Ret / WBC: tissue Blood; for KIDNEY_L / KIDNEY_R / KIDNEY_TOTAL: tissue Kidney; for LIVER: tissue Liver; for A/G / ALP / ALT / AST / BUN / CRE / Ca / Cl / DBIL / GLC / IP / K / LDH / Na / PL / RALB / TBIL / TC / TG / TP / gamma-GTP: tissue Plasma
smiles,measurement,setting,value
O=c1ccc2ccccc2o1 [COUMARIN],TERMINAL_BW,3 h,182 g
same,APTT,3 h,16 s
same,Bas,3 h,0%
same,Eos,3 h,0.6%
same,Fbg,3 h,201.2 mg/dL
same,Hb,3 h,13.9 g/dL
same,Ht,3 h,42.2%
same,Lym,3 h,73.6%
same,MCH,3 h,22.2 pg
same,MCHC,3 h,33%
same,MCV,3 h,67.3 fL
same,Mono,3 h,5%
same,Neu,3 h,20.8%
same,PT,3 h,12.6 s
same,Plat,3 h,131.8 x10_4/uL
same,RBC,3 h,627.6 x10_4/ul
same,Ret,3 h,9.9%
same,WBC,3 h,86 x10_2/uL
same,KIDNEY_L,3 h,0.8 g
same,KIDNEY_R,3 h,0.9 g
same,KIDNEY_TOTAL,3 h,1.7 g
same,LIVER,3 h,8.3 g
same,A/G,3 h,2.1
same,ALP,3 h,1017.8 IU/L
same,ALT,3 h,45.4 IU/L
same,AST,3 h,76.4 IU/L
same,BUN,3 h,11.4 mg/dL
same,CRE,3 h,0.4 mg/dL
same,Ca,3 h,10.7 mg/dL
same,Cl,3 h,100.6 meq/L
same,DBIL,3 h,0 mg/dL
same,GLC,3 h,220.8 mg/dL
same,IP,3 h,11.2 mg/dL
same,K,3 h,4.3 meq/L
same,LDH,3 h,175 IU/L
same,Na,3 h,137.8 meq/L
same,PL,3 h,158.4 mg/dL
same,RALB,3 h,3.8 g/dL
same,TBIL,3 h,0.2 mg/dL
same,TC,3 h,89.6 mg/dL
same,TG,3 h,53 mg/dL
same,TP,3 h,5.7 g/dL
same,gamma-GTP,3 h,1.6 IU/L
same,TERMINAL_BW,6 h,176.6 g
same,APTT,6 h,16.5 s
same,Bas,6 h,0%
same,Eos,6 h,0.6%
same,Fbg,6 h,210.4 mg/dL
same,Hb,6 h,14.8 g/dL
same,Ht,6 h,44.4%
same,Lym,6 h,68.4%
same,MCH,6 h,21.4 pg
same,MCHC,6 h,33.2%
same,MCV,6 h,64.4 fL
same,Mono,6 h,7.4%
same,Neu,6 h,24.2%
same,PT,6 h,13 s
same,Plat,6 h,111.1 x10_4/uL
same,RBC,6 h,690.2 x10_4/ul
same,Ret,6 h,8.7%
same,WBC,6 h,61.8 x10_2/uL
same,KIDNEY_L,6 h,0.8 g
same,KIDNEY_R,6 h,0.8 g
same,KIDNEY_TOTAL,6 h,1.6 g
same,LIVER,6 h,7.3 g
same,A/G,6 h,2.2
same,ALP,6 h,951.6 IU/L
same,ALT,6 h,45.2 IU/L
same,AST,6 h,77.6 IU/L
same,BUN,6 h,16 mg/dL
same,CRE,6 h,0.5 mg/dL
same,Ca,6 h,10.3 mg/dL
same,Cl,6 h,102.4 meq/L
same,DBIL,6 h,0.008 mg/dL
same,GLC,6 h,190.6 mg/dL
same,IP,6 h,10.1 mg/dL
same,K,6 h,4.5 meq/L
same,LDH,6 h,203.2 IU/L
same,Na,6 h,138 meq/L
same,PL,6 h,144.2 mg/dL
same,RALB,6 h,4 g/dL
same,TBIL,6 h,0.2 mg/dL
same,TC,6 h,94.4 mg/dL
same,TG,6 h,23.4 mg/dL
same,TP,6 h,5.9 g/dL
same,gamma-GTP,6 h,1.4 IU/L
same,TERMINAL_BW,9 h,175.4 g
same,APTT,9 h,16.4 s
same,Bas,9 h,0%
same,Eos,9 h,1%
same,Fbg,9 h,196.4 mg/dL
same,Hb,9 h,14.5 g/dL
same,Ht,9 h,43.8%
same,Lym,9 h,76.8%
same,MCH,9 h,21.6 pg
same,MCHC,9 h,33.1%
same,MCV,9 h,65.2 fL
same,Mono,9 h,8%
same,Neu,9 h,14.4%
same,PT,9 h,13.2 s
same,Plat,9 h,100.6 x10_4/uL
same,RBC,9 h,672.6 x10_4/ul
same,Ret,9 h,9.7%
same,WBC,9 h,79.6 x10_2/uL
same,KIDNEY_L,9 h,0.8 g
same,KIDNEY_R,9 h,0.8 g
same,KIDNEY_TOTAL,9 h,1.6 g
same,LIVER,9 h,7.3 g
same,A/G,9 h,2.1
same,ALP,9 h,950 IU/L
same,ALT,9 h,37.4 IU/L
same,AST,9 h,75.8 IU/L
same,BUN,9 h,15.2 mg/dL
same,CRE,9 h,0.5 mg/dL
same,Ca,9 h,10.6 mg/dL
same,Cl,9 h,102.4 meq/L
same,DBIL,9 h,0.04 mg/dL
same,GLC,9 h,182.8 mg/dL
same,IP,9 h,9.8 mg/dL
same,K,9 h,4.4 meq/L
same,LDH,9 h,153.2 IU/L
same,Na,9 h,137.4 meq/L
same,PL,9 h,147.2 mg/dL
same,RALB,9 h,3.8 g/dL
same,TBIL,9 h,0.3 mg/dL
same,TC,9 h,93 mg/dL
same,TG,9 h,22.4 mg/dL
same,TP,9 h,5.6 g/dL
same,gamma-GTP,9 h,1.2 IU/L
same,TERMINAL_BW,24 h,177.1 g
same,APTT,24 h,16 s
same,Bas,24 h,0%
same,Eos,24 h,1.2%
same,Fbg,24 h,181.2 mg/dL
same,Hb,24 h,14 g/dL
same,Ht,24 h,42%
same,Lym,24 h,77.2%
same,MCH,24 h,21.6 pg
same,MCHC,24 h,33.2%
same,MCV,24 h,65.1 fL
same,Mono,24 h,9.6%
same,Neu,24 h,12.6%
same,PT,24 h,12.9 s
same,Plat,24 h,118.7 x10_4/uL
same,RBC,24 h,645.8 x10_4/ul
same,Ret,24 h,7.5%
same,WBC,24 h,85.4 x10_2/uL
same,KIDNEY_L,24 h,0.8 g
same,KIDNEY_R,24 h,0.9 g
same,KIDNEY_TOTAL,24 h,1.7 g
same,LIVER,24 h,8.5 g
same,A/G,24 h,2.1
same,ALP,24 h,1067.4 IU/L
same,ALT,24 h,40.2 IU/L
same,AST,24 h,85.8 IU/L
same,BUN,24 h,15.6 mg/dL
same,CRE,24 h,0.6 mg/dL
same,Ca,24 h,11 mg/dL
same,Cl,24 h,105.2 meq/L
same,DBIL,24 h,0.016 mg/dL
same,GLC,24 h,179 mg/dL
same,IP,24 h,8.6 mg/dL
same,K,24 h,5.3 meq/L
same,LDH,24 h,202.8 IU/L
same,Na,24 h,137.8 meq/L
same,PL,24 h,121.2 mg/dL
same,RALB,24 h,3.7 g/dL
same,TBIL,24 h,0.4 mg/dL
same,TC,24 h,68.2 mg/dL
same,TG,24 h,42.6 mg/dL
same,TP,24 h,5.5 g/dL
same,gamma-GTP,24 h,1.2 IU/L
